Experiment [1] can be described thus: Inhibition of beta lactamase SHV1.
Experiment [2] in a line: Inhibition of beta lactamase TEM1.
A short description of experiment [3]: Inhibition of beta lactamase P99.
Experiment [4] deals with Beta-lactamase OXA-1 (Escherichia coli) (UniProt P13661). The experiment in a line: Inhibition of Escherichia coli beta lactamase OXA-1.
Beta-lactamase OXA-1 (Escherichia coli), sequence (P13661 whole entry): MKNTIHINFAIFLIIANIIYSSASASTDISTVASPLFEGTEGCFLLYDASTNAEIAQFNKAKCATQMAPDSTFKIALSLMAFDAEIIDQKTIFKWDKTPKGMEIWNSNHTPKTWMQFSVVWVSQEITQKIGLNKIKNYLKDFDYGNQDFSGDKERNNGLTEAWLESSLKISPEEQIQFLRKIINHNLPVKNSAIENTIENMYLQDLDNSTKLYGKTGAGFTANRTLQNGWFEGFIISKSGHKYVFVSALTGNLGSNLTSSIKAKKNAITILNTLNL

Take `C[C@]1(Cn2ccnn2)[C@H](C(=O)O)N2C(=O)C[C@H]2S1(=O)=O`: the Kinact in experiment [1] came to 330 nM.

Consider `C[C@]1(COC(=O)Cc2ccccc2)[C@H](C(=O)O)N2C(=O)/C(=C/c3ccccn3)[C@H]2S1(=O)=O`, for which the figures for the Kinact in experiment [1] and in experiment [4] were 42 nM and 1 µM, respectively. For the same molecule, the IC50 in experiment [2] was found to be 40 nM; in experiment [3], 1 nM.

As usually defined, the IC50 is the concentration that inhibits the measured activity by half.

The values are drawn from ChEMBL document CHEMBL1156475, “Efficient inhibition of class A and class D beta-lactamases by Michaelis complexes” (J Biol Chem, 2007).
